{
  "source": "ChEMBL document CHEMBL1240300",
  "about": "“Diversity-oriented synthesis: exploring the intersections between chemistry and biology” (Nat Chem Biol, 2005)",
  "key": {"[1]": {"target": "T1, Glycogen synthase kinase-3 beta (Mus musculus, UniProt Q9WV60)", "T1 sequence (Q9WV60 whole entry)": "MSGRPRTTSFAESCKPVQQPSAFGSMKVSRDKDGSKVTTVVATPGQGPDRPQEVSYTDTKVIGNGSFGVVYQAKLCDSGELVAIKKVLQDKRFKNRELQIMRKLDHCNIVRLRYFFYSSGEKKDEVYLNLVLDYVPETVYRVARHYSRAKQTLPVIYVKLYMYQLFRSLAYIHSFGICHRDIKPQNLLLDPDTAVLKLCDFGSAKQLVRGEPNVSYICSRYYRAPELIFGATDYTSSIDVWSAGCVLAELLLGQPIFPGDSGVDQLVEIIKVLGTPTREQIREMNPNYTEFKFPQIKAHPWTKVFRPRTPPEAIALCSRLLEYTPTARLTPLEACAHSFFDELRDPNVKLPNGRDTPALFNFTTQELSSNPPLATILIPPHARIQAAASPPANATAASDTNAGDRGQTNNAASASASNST", "test": "Inhibition of GSK-3 beta in mouse D3 cells", "format": "cell-based"}, "[2]": {"target": "T1, Glycogen synthase kinase-3 beta", "test": "Inhibition of GSK-3 beta in mouse D3 cells assessed as induction of neuron specific marker microtubule-associated protein 2 by immunofluorescence method", "format": "cell-based"}, "[3]": {"target": "T1, Glycogen synthase kinase-3 beta", "test": "Inhibition of GSK-3 beta in mouse D3 cells assessed as induction of neuron specific marker neurofilament-M by immunofluorescence method", "format": "cell-based"}, "[4]": {"target": "T1, Glycogen synthase kinase-3 beta", "test": "Inhibition of GSK-3 beta in mouse D3 cells assessed as induction of neuron specific marker beta3-tubulin by immunofluorescence method", "format": "cell-based"}, "[5]": {"target": "Myc proto-oncogene protein/Transcription factor AP-1 (Gallus gallus, UniProt P01109+P18870)", "sequence (P18870 whole entry)": "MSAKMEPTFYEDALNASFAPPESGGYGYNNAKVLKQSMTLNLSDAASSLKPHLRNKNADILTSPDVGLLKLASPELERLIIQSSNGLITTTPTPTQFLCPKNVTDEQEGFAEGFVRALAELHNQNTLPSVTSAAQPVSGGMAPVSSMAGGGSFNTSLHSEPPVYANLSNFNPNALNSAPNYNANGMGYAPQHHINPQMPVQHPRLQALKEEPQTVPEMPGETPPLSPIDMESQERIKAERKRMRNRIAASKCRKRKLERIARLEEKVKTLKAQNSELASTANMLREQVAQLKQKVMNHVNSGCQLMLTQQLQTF", "sequence (P01109 whole entry)": "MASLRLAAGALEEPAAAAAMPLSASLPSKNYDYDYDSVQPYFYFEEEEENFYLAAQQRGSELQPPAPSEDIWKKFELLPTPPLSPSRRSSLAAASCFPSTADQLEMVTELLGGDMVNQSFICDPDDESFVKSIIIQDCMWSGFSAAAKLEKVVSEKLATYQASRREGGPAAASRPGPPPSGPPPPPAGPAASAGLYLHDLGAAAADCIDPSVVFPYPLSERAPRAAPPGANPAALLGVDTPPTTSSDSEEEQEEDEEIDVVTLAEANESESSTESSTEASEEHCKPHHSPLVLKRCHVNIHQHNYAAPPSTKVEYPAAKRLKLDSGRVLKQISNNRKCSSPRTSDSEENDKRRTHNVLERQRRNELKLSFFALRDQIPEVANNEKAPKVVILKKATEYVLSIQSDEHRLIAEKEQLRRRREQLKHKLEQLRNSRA", "test": "Inhibition of Myc-Jun protein - protein interaction in chicken embryo fibroblasts assessed as inhibition of cell focus formation11"}, "[6]": {"target": "T1, Glycogen synthase kinase-3 beta", "test": "Binding affinity to GSK-3 beta in mouse D3 cells", "format": "cell-based"}, "[7]": {"test": "Induction of cardiomyogenesis in mouse D3 cells assessed as induction of cadiomyocyte specific marker myosin heavy chain by immunofluorescence method", "format": "functional, cell-based"}, "[8]": {"test": "Induction of cardiomyogenesis in mouse D3 cells assessed as induction of cadiomyocyte specific marker MEF2 by immunofluorescence method", "format": "functional, cell-based"}, "Histone deacetylase": {"target": "Histone deacetylase", "test": "Inhibition of HDAC in human A549 cells assessed as induction of histone acetylation by fluorescence microscopy", "format": "cell-based"}, "C3H 10T1/2": {"test_system": "C3H 10T1/2", "test": "Induction of osteogenesis in mouse C3H10T1/2 cells assessed as induction of osteoblast specific marker alkaline phosphatase by immunofluorescence method", "format": "functional, cell-based"}, "[9]": {"test": "Binding affinity to yeast Ure2p", "parameters": "species or system Saccharomyces cerevisiae"}},
  "note": "pEC50, pIC50, pKd: −log10 of the molar value.",
  "data": [
    {"compound": "Nc1cccc(-c2cc3c(Oc4cccc(O)c4)ncnc3[nH]2)c1", "values": [
      {"measurement": "pKd", "setting": "[1]", "result": 6.90},
      {"measurement": "pEC50", "setting": "[2]", "result": 6.00},
      {"measurement": "pEC50", "setting": "[3]", "result": 6.00},
      {"measurement": "pEC50", "setting": "[4]", "result": 6.00},
      {"measurement": "pIC50", "setting": "[5]", "result": 4.82},
      {"measurement": "pIC50", "setting": "[6]", "result": 7.52}
    ]},
    {"compound": "COc1ccc(Nc2nccc(NCCO)n2)cc1", "note": "[CARDIOGENOL C]", "values": [
      {"measurement": "pEC50", "setting": "[7]", "result": 7.00},
      {"measurement": "pEC50", "setting": "[8]", "result": 7.00}
    ]},
    {"compound": "Nc1ccccc1NC(=O)CCCCCC(=O)Nc1cccc([C@@H]2O[C@H](CN3CCN(Cc4ccccc4)CC3)C[C@H](c3ccc(CO)cc3)O2)c1", "note": "[HISTACIN]", "values": [
      {"measurement": "EC50", "setting": "Histone deacetylase", "result": 34, "unit": "µM"}
    ]},
    {"compound": "c1ccc2c(Oc3nc(Nc4ccc(N5CCOCC5)cc4)c4ncn(C5CCCCC5)c4n3)cccc2c1", "note": "[PURMORPHAMINE]", "values": [
      {"measurement": "pEC50", "setting": "C3H 10T1/2", "result": 6.00}
    ]},
    {"compound": "NCc1ccc([C@H]2O[C@@H](CSc3nc(-c4ccccc4)c(-c4ccccc4)o3)[C@H](c3ccccc3)[C@@H](c3ccc(CO)cc3)O2)cc1", "note": "[URETUPAMINE A]", "values": [
      {"measurement": "pKd", "setting": "[9]", "result": 4.74}
    ]},
    {"compound": "NCc1ccc([C@H]2O[C@@H](CSc3nc(-c4ccccc4)c(-c4ccccc4)o3)C[C@@H](c3ccc(CO)cc3)O2)cc1", "note": "[URETUPAMINE B]", "values": [
      {"measurement": "pKd", "setting": "[9]", "result": 5.12}
    ]}
  ]
}
